Data taken from ChEMBL document CHEMBL1131516, “Sialyl Lewis X-polysaccharide conjugates: targeting inflammatory lesions” (Bioorg Med Chem Lett, 1998).

Target: T1, E-selectin (Rattus norvegicus, UniProt P98105)
T1 sequence (P98105 whole entry): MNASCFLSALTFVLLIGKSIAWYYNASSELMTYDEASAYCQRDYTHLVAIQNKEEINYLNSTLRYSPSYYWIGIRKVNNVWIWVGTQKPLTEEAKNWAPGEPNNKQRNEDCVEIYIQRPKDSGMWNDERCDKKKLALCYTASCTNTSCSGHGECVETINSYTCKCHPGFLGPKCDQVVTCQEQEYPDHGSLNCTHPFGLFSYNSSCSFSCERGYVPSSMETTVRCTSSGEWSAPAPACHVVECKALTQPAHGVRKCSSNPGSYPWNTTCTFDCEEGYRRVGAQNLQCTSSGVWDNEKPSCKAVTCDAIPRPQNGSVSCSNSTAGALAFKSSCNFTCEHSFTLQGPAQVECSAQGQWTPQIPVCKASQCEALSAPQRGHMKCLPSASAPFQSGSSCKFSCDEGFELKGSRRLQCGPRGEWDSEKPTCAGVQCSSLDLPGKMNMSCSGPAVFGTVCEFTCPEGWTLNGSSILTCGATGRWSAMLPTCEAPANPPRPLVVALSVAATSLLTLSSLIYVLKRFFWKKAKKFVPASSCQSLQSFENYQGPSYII
Test: Inhibitory concentration against Selectin E expressed at the inflammatory lesion was measured by inhibition of leukocyte rolling in the inflammatory model using IL-lbeta activated rat mesentery venules. (In vivo )
Format: organism-based

## CCOCCOCCOCCOCCOCCO[C@@H]1O[C@@H](CO)[C@@H](O[C@@H]2O[C@@H](CO)[C@H](O)[C@H](O[C@]3(C(=O)O)C[C@@H](O)[C@@H](NC(C)=O)[C@H]([C@H](O)[C@H](O)CO)O3)[C@@H]2O)[C@H](O[C@@H]2O[C@@H](C)[C@@H](O)[C@H](O)[C@@H]2O)[C@@H]1NC(C)=O
  IC50: 2630 nM
